Measurements from US10766865B2, “PKM2 modulators and methods for their use” (TOLERO PHARMACEUTICALS, INC., priority 2012, dated 2020).
Where two headings read alike, the source gives them in different places.

Molecular target: PKM2 (Homo sapiens, UniProt P14618)
Assay: PKM2 Biochemical Assay
Conditions: for Max. Resp.: % maximum response in a biochemical assay as compared with Fructose 1,6-bisphosphate

Sequence of PKM2 (P14618 whole entry): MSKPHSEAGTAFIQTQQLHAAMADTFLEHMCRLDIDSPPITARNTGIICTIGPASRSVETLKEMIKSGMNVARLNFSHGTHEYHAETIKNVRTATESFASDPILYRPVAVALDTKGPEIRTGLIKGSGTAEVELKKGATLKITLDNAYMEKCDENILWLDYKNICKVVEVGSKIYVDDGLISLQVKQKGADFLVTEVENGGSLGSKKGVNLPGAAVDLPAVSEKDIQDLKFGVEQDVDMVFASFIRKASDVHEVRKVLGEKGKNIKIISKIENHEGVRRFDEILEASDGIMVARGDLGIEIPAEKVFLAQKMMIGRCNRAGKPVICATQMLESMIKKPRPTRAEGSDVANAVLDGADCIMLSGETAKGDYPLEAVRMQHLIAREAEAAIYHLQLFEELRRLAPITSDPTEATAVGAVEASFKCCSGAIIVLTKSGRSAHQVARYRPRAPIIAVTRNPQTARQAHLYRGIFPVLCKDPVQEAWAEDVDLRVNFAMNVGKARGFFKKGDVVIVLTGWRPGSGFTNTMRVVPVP

O=C1CCC(CCN(Cc2ccccc2F)C(=O)c2cc(C(F)(F)F)n[nH]2)CC1 [Example 60, N-(2-fluorobenzyl)-N-(2-(4-oxocyclohexyl)ethyl)-3-(trifluoromethyl)-1H-pyrazole-5-carboxamide]
Max. Resp.: 105%

O=C(c1cc(C(F)(F)F)n[nH]1)N(CCC1CCS(=O)(=O)C1)Cc1ccccc1F (stereo not drawn) [Example 63]
Max. Resp.: 87%

O=C(c1cc(C(F)(F)F)n[nH]1)N(CCC1CCS(=O)(=O)C1)Cc1c(Cl)cccc1Cl (stereo not drawn) [Example 64]
Max. Resp.: 71%

O=C(c1cc(C(F)(F)F)n[nH]1)N(CCC1CCS(=O)(=O)C1)Cc1c(F)cccc1F (stereo not drawn) [Example 66]
Max. Resp.: 102%

O=C(c1cc(C(F)(F)F)n[nH]1)N(CCC1CCS(=O)(=O)C1)Cc1cccc(F)c1 (stereo not drawn) [Example 67]
Max. Resp.: 95%

O=C(c1cc(C(F)(F)F)n[nH]1)N(CCC1CCS(=O)(=O)C1)Cc1cccc(F)c1F (stereo not drawn) [Example 68]
Max. Resp.: 103%

O=C(c1cc(C(F)(F)F)n[nH]1)N(CCC1CCS(=O)(=O)C1)Cc1cc(F)cc(F)c1 (stereo not drawn) [Example 69]
Max. Resp.: 74%

O=C(c1cc(C(F)(F)F)n[nH]1)N(CCC1CCS(=O)(=O)C1)Cc1cc(F)ccc1F (stereo not drawn) [Example 70]
Max. Resp.: 91%

O=C(c1cc(C(F)(F)F)n[nH]1)N(Cc1ccccc1F)CC1CCS(=O)(=O)CC1 [Example 71]
Max. Resp.: 71%

O=C(c1cc(C(F)(F)F)n[nH]1)N(Cc1ccccc1Cl)CC1CCS(=O)(=O)CC1 [Example 72]
Max. Resp.: 22%

O=C(c1cc(C(F)(F)F)n[nH]1)N(CCC1CCSCC1)Cc1ccccc1Cl [Example 73, N-(2-chlorobenzyl)-N-(2-(tetrahydro-2H-thiopyran-4-yl)ethyl)-3-(trifluoromethyl)-1H-pyrazole-5-carboxamide]
Max. Resp.: 79%

O=C(c1cc(C(F)(F)F)n[nH]1)N(CCC1CC[S+]([O-])CC1)Cc1ccccc1Cl (stereo not drawn) [Example 74, N-(2-CHLOROBENZYL)-N-(2-(1-OXIDOTETRAHYDRO-2H-THIOPYRAN-4-YL)ETHYL)-3-(TRIFLUOROMETHYL)-1H-PYRAZOLE-5-CARBOXAMIDE]
Max. Resp.: 95%

O=C(c1cc(C(F)(F)F)n[nH]1)N(CCC1CCS(=O)(=O)C1)Cc1ccc(O)cc1F (stereo not drawn) [Example 76]
Max. Resp.: 93%

Nc1ccccc1CN(CCC1CCS(=O)(=O)C1)C(=O)c1cc(C(F)(F)F)n[nH]1 (stereo not drawn) [Example 77]
Max. Resp.: 43%

O=C(c1cc(C(F)(F)F)n[nH]1)N(CCC1CCSCC1)Cc1ccccc1F [Example 79]
Max. Resp.: 95%

O=C(c1cc(Cl)n[nH]1)N(CCC1CCSCC1)Cc1ccccc1F [Example 80]
Max. Resp.: 46%

O=C(c1cc(Cl)n[nH]1)N(CCC1CCS(=O)(=O)CC1)Cc1ccccc1F [Example 81]
Max. Resp.: 72%

O=C(c1cc(Br)n[nH]1)N(CCC1CCSCC1)Cc1ccccc1F [Example 82]
Max. Resp.: 74%

O=C(c1cc(Br)n[nH]1)N(CCC1CCS(=O)(=O)CC1)Cc1ccccc1F [Example 83]
Max. Resp.: 98%

O=C(c1cc(C(F)(F)F)n[nH]1)N(CCC1CCSCC1)Cc1c(F)cccc1F [Example 84]
Max. Resp.: 73%

O=C(c1cc(C(F)(F)F)n[nH]1)N(CCC1CCS(=O)(=O)CC1)Cc1c(F)cccc1F [Example 85]
Max. Resp.: 100%

O=C(c1cc(C(F)(F)F)n[nH]1)N(CCC1CCSCC1)Cc1ccc(O)cc1F [Example 86]
Max. Resp.: 98%

O=C(c1cc(C(F)(F)F)n[nH]1)N(CCC1CCS(=O)(=O)CC1)Cc1ccc(O)cc1F [Example 87]
Max. Resp.: 100%

O=C(c1cc(C(F)(F)F)n[nH]1)N(CCC1CCS(=O)(=O)C1)Cc1ccccn1 (stereo not drawn) [Example 88]
Max. Resp.: 96%

O=C(c1cc(C(F)(F)F)n[nH]1)N(CCC1CCS(=O)(=O)C1)Cc1ccncc1 (stereo not drawn) [Example 89]
Max. Resp.: 35%

O=C(c1cc(C(F)(F)F)n[nH]1)N(CCC1CCS(=O)(=O)C1)Cc1cccnc1 (stereo not drawn) [Example 90]
Max. Resp.: 24%

O=C(c1cc(C(F)(F)F)n[nH]1)N(CCC1CCS(=O)(=O)C1)Cc1ncccc1Cl (stereo not drawn) [Example 92]
Max. Resp.: 74%

O=C(c1cc(C(F)(F)F)n[nH]1)N(CCC1CCS(=O)(=O)C1)Cc1cncs1 (stereo not drawn) [Example 93]
Max. Resp.: 26%

O=C(c1cc(C(F)(F)F)n[nH]1)N(CCC1CCS(=O)(=O)C1)Cc1cccc([N+](=O)[O-])c1Cl (stereo not drawn) [Example 94, N-(2-chloro-3-nitrobenzyl)-N-(2-(1,1-dioxidotetrahydrothiophen-3-yl)ethyl)-3-(trifluoromethyl)-1H-pyrazole-5-carboxamide]
Max. Resp.: 69%

O=C(c1cc(C(F)(F)F)n[nH]1)N(CCC1CCNCC1)Cc1ccccc1F [Example 98]
Max. Resp.: 56%

CS(=O)(=O)N1CCC(CCN(Cc2ccccc2F)C(=O)c2cc(C(F)(F)F)n[nH]2)CC1 [Example 99]
Max. Resp.: 100%

CN1CCC(CN(Cc2ccccc2F)C(=O)c2cc(C(F)(F)F)n[nH]2)CC1 [Example 100]
Max. Resp.: 29%

CN1CCN(CCN(Cc2ccccc2F)C(=O)c2cc(C(F)(F)F)n[nH]2)CC1 [Example 103]
Max. Resp.: 42%

CN1CCN(CCN(Cc2ccccc2Cl)C(=O)c2cc(C(F)(F)F)n[nH]2)CC1 [Example 104]
Max. Resp.: 63%

CCN1CCC(CCN(Cc2c(Cl)cccc2Cl)C(=O)c2cc(C(F)(F)F)n[nH]2)CC1 [Example 105]
Max. Resp.: 71%

CCN1CCN(CCN(Cc2ccccc2F)C(=O)c2cc(C(F)(F)F)n[nH]2)CC1 [Example 106]
Max. Resp.: 115%

O=C(c1cc(C(F)(F)F)n[nH]1)N(CCN1CCS(=O)(=O)CC1)Cc1ccccc1Cl [Example 107]
Max. Resp.: 85%

O=C(c1cc(C(F)(F)F)n[nH]1)N(CCN1CCS(=O)(=O)CC1)Cc1ccccc1F [Example 108]
Max. Resp.: 92%

O=C(c1cc(C(F)(F)F)n[nH]1)N(CCN1CCS(=O)(=O)CC1)Cc1c(F)cccc1F [Example 109]
Max. Resp.: 94%

O=C(c1cc(C(F)(F)F)n[nH]1)N(CCN1CCS(=O)(=O)CC1)Cc1c(Cl)cccc1Cl [Example 110]
Max. Resp.: 84%

O=C(c1cc(C(F)(F)F)n[nH]1)N(CCN1CCS(=O)(=O)CC1)Cc1cccc(F)c1F [Example 111]
Max. Resp.: 64%

Nc1cccc(CN(CCN2CCS(=O)(=O)CC2)C(=O)c2cc(C(F)(F)F)n[nH]2)c1 [Example 112]
Max. Resp.: 91%

CC[C@](C)(N)C(=O)Oc1ccc(CN(CC2CCC2)C(=O)c2cc(Cl)n[nH]2)c(F)c1 [Example 115, (S)-4-((3-chloro-N-(cyclobutylmethyl)-1H-pyrazole-5-carboxamido)methyl)-3-fluorophenyl 2-amino-2-methylbutanoate]
Max. Resp.: 104%

CN(C)Cc1c[nH]c2cccc(CN(CC3CCC3)C(=O)c3cc(Cl)n[nH]3)c12 [Example 118, 3-CHLORO-N-(CYCLOBUTYLMETHYL)-N-((3-((DIMETHYLAMINO)METHYL)-1H-INDOL-4-YL)METHYL)-1H-PYRAZOLE-5-CARBOXAMIDE]
Max. Resp.: 100%

O=C(c1cc(Cl)n[nH]1)N(Cc1cccc2[nH]cnc12)CC1CCC1 [Example 119, N-((1H-benzo[d]imidazol-4-yl)methyl)-3-chloro-N-(cyclobutylmethyl)-1H-pyrazole-5-carboxamide]
Max. Resp.: 100%

O=C(c1cc(Br)n[nH]1)N(Cc1cccc2[nH]cnc12)CC1CCC1 [Example 120, N-((1H-benzo[d]imidazol-4-yl)methyl)-3-bromo-N-(cyclobutylmethyl)-1H-pyrazole-5-carboxamide]
Max. Resp.: 100% | AC50 (read-out: PKM2 AC50, 2 nM PKM2, 75 μM ADP, 15 μM PEP, Kinase Glo): 1.33 µM

O=C(c1cc(C(F)(F)F)n[nH]1)N(Cc1cccc2[nH]cnc12)CC1CCC1 [Example 123, N-((1H-benzo[d]imidazol-4-yl)methyl)-N-(cyclobutylmethyl)-3-(trifluoromethyl)-1H-pyrazole-5-carboxamide]
Max. Resp.: 100%

O=C(c1cc(C(F)(F)F)n[nH]1)N(Cc1ccc(O)cc1Cl)CC1CCC1 [Example 124, N-(2-chloro-4-hydroxybenzyl)-N-(cyclobutylmethyl)-3-(trifluoromethyl)-1H-pyrazole-5-carboxamide]
Max. Resp.: 100%

O=C(c1cc(Br)n[nH]1)N(Cc1ccc(O)cc1Cl)CC1CCC1 [Example 125, N-(2-chloro-4-hydroxybenzyl)-3-bromo-N-(cyclobutylmethyl)-1H-pyrazole-5-carboxamide]
Max. Resp.: 100%

O=C(c1cc(C(F)(F)F)n[nH]1)N(Cc1ccccc1Cl)CC1CCC1 [Example 127, N-(2-chlorobenzyl)-N-(cyclobutylmethyl)-3-(trifluoromethyl)-1H-pyrazole-5-carboxamide]
Max. Resp.: 100%

O=C(c1cc(C(F)(F)F)n[nH]1)N(Cc1ccncc1Cl)CC1CCC1 [Example 128, N-((3-chloropyridin-4-yl)methyl)-N-(cyclobutylmethyl)-3-(trifluoromethyl)-1H-pyrazole-5-carboxamide]
Max. Resp.: 75%

O=C(c1cc(C(F)(F)F)n[nH]1)N(CCC(F)(F)F)Cc1ccc(O)cc1F [Example 130, N-(2-fluoro-4-hydroxybenzyl)-3-(trifluoromethyl)-N-(3,3, trifluoropropyl)-1H-pyrazole-5-carboxamide]
Max. Resp.: 100%

CC(C)(O)CCN(Cc1ccc(O)cc1F)C(=O)c1cc(C(F)(F)F)n[nH]1 [Example 131, N-(2-fluoro-4-hydroxybenzyl)-3-(trifluoromethyl)-N-(3-hydroxy-3-methylbutyl)-1H-pyrazole-5-carboxamide]
AC50: 23 µM

O=C(c1cc(C(F)(F)F)n[nH]1)N(Cc1ccc(O)cc1F)C1CCCC1 [Example 132, N-(2-fluoro-4-hydroxybenzyl)-N-cyclopentyl-3-(trifluoromethyl)-1H-pyrazole-5-carboxamide]
Max. Resp.: 100%

NCCN(Cc1ccc(O)cc1F)C(=O)c1cc(C(F)(F)F)n[nH]1 [Example 133, N-(2-fluoro-4-hydroxybenzyl)-N-(2-aminoethyl)-3-(trifluoromethyl)-1H-pyrazole-5-carboxamide]
Max. Resp.: 100%

Nc1ccc(CN(CC2CCC2)C(=O)c2cc(C(F)(F)F)n[nH]2)c(Cl)c1 [Example 134, N-(4-amino-2-chlorobenzyl)-N-(cyclobutylmethyl)-3-(trifluoromethyl)-1H-pyrazole-5-carboxamide]
Max. Resp.: 100%
